Results as given in patent US9315475B2 (MERCK SHARP & DOHME CORP., priority 2011, dated 2016).

The molecules below were run against T1, wildtype HIV-1 protease (Human immunodeficiency virus type 1 group M subtype B, UniProt P04585) (assay: Assay for inhibition of microbial expressed HIV protease (Pepcleav)). Conditions: wild type HIV-1 protease expressed in E. coli, peptide substrate, pH 5.5; mean of at least two independent experiments; read-out: Pepcleav.
T1 construct: the wildtype HIV-1 protease (which was expressed in Escherichia coli); made in house; host or cells: Escherichia coli
Assay type: biochemical
Procedure, shortened: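 Cleavage of 400 μM peptide substrate Val-Ser-Gln-Asn-(βnaphthyl)Ala-Pro-Ile-Val by 20 pM wild-type enzyme (E. coli-expressed) ran 1 h at 30 °C after 30 min inhibitor preincubation, pH 5.5 acetate buffer. Inhibition derived from product peak area by C18 LC with multiple-reaction-monitoring MS after formic acid quench.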

In order of falling IC50:
1. N[C@@H](Cc1ccccc1C1CC1)C(=O)Nc1cncc(F)c1CC[C@@H]1CN[C@H](COC(=O)NCC(F)(F)F)CO1 [Example 189, 2-cyclopropyl-N-(5-fluoro-4-{2-[(2R,5S)-5-({[(2,2,2-trifluoroethyl)carbamoyl]oxy}methyl)morpholin-2-yl]ethyl}pyridin-3-yl)-L-phenylalaninamide]  1730 nM
2. O=C(C[C@H](CC1CC1)c1ccccc1)Nc1cccc(F)c1CC[C@@H]1CN[C@H](COC(=O)NCC(F)(F)F)CO1 [Example 163, {(3S,6R)-6-[2-(2-{[(3S)-4-cyclopropyl-3-phenyl-butanoyl]amino}-6-fluoro-phenyl)ethyl]morpholin-3-yl}methyl (2,2,2-trifluoroethyl)carbamate]  1100 nM
3. COC(=O)N[C@H](C(=O)Nc1ccccc1CC[C@@H]1CN[C@H](CNC(=O)OC2CCOC2)CO1)C(c1ccccc1)c1ccccc1 (stereo partly drawn) [Example 84, Nα-(methoxycarbonyl)-β-phenyl-N-(2-{2-[(2R,5R)-5-({[(tetrahydrofuran-3-yloxy)carbonyl]amino}methyl)morpholin-2-yl]ethyl}phenyl)-L-phenylalaninamide]  670 nM
4. O=C(C[C@H](c1ccccc1)c1ccncc1)Nc1cccc(F)c1CC[C@@H]1CN[C@H](COC(=O)NCC(F)(F)F)CO1 [Example 162, {(3S,6R)-6-[2-(2-fluoro-6-{[(3R)-3-phenyl-3-pyridin-4-ylpropanoyl]amino}phenyl)ethyl]morpholin-3-yl}methyl (2,2,2-trifluoroethyl)carbamate]  510 nM
5. N[C@@H](Cc1cccc2ccccc12)C(=O)Nc1cncc(F)c1CC[C@@H]1CN[C@H](COC(=O)NCC(F)(F)F)CO1 [Example 190, {(3S,6R)-6-[2-(3-{[(2S)-2-amino-3-naphthalen-1-ylpropanoyl]amino}-5-fluoropyridin-4-yl)ethyl]morpholin-3-yl}methyl (2,2,2-trifluoroethyl)carbamate (non-preferred name)]  510 nM
6. O=C(NCC(F)(F)F)OC[C@@H]1CO[C@H](CCc2c(F)cncc2NC(=O)[C@@H](NC(=O)OCC(F)(F)F)C(c2ccc(F)cc2)c2ccc(F)cc2)CN1 [Example 141, 4-Fluoro-β-(4-fluorophenyl)-N-(5-fluoro-4-{2-[(2R,5S)-5-({[(2,2,2-trifluoroethyl)carbamoyl]oxy}methyl)morpholin-2-yl]ethyl}pyridin-3-yl)-Nα-[(2,2,2-trifluoroethoxy)carbonyl]-L-phenylalaninamide]  180 nM
7. N[C@@H](Cc1cccc2ccccc12)C(=O)Nc1cncc(F)c1CC[C@@H]1CN[C@H](COC(=O)NCc2ccc(F)cc2)CO1 [Example 191, {(3S,6R)-6-[2-(3-{[(2S)-2-amino-3-naphthalen-1-ylpropanoyl]amino}-5-fluoropyridin-4-yl)ethyl]morpholin-3-yl}methyl (4-fluorobenzyl)carbamate (non-preferred name)]  130 nM
8. N[C@H](C(=O)Nc1ccc(F)cc1CC[C@@H]1CN[C@H](COC(=O)NCC(F)F)CO1)C(c1ccccc1)c1ccccc1 [Example 192, N-(2-{2-[(2R,5S)-5-({[(2,2-difluoroethyl)carbamoyl]oxy}methyl)morpholin-2-yl]ethyl}-4-fluorophenyl)-β-phenyl-L-phenylalaninamide]  130 nM
9. N[C@H](C(=O)Nc1cncc(F)c1CC[C@@H]1CN[C@H](COC(=O)NC2(c3ccncc3)CCC2)CO1)C(c1ccc(F)cc1)c1ccc(F)cc1 [Example 194, 4-fluoro-β-(4-fluorophenyl)-N-(5-fluoro-4-{2-[(2R,5S)-5-({[(1-pyridin-4-ylcyclobutyl)carbamoyl]oxy}methyl)morpholin-2-yl]ethyl}pyridin-3-yl)-L-phenylalaninamide]  100 nM
10. C[C@H](Oc1c(F)cccc1NC(=O)[C@@H](N)C(c1ccc(F)cc1)c1ccc(F)cc1)[C@@H]1CN[C@H](COC(=O)NCc2ccc(F)cc2)CO1 [Example 195, 4-fluoro-N-(3-fluoro-2-{(1S)-1-[(2S,5S)-5-({[(4-fluorobenzyl)carbamoyl]oxy}methyl)morpholin-2-yl]ethoxy}phenyl)-β-(4-fluorophenyl)-L-phenylalaninamide]  91 nM
11. N[C@H](C(=O)Nc1ccc(F)cc1CC[C@@H]1CN[C@H](COC(=O)NCC(F)(F)F)CO1)C(c1ccccc1)c1ccccc1 [Example 196, N-(4-fluoro-2-{2-[(2R,5S)-5-({[(2,2,2-trifluoroethyl)carbamoyl]oxy}methyl)morpholin-2-yl]ethyl}phenyl)-β-phenyl-L-phenylalaninamide]  79 nM
12. N[C@H](C(=O)Nc1cncc(F)c1CC[C@@H]1CN[C@H](COC(=O)N2CCOCC2)CO1)C(c1ccc(F)cc1)c1ccc(F)cc1 [Example 197, {(3S,6R)-6-[2-(3-fluoro-5-{[4-fluoro-β-(4-fluorophenyl)-L-phenylalanyl]amino}pyridin-4-yl)ethyl]morpholin-3-yl}methyl morpholine-4-carboxylate]  68 nM
13. COC(=O)N[C@H](C(=O)Nc1ccccc1CC(F)[C@@H]1CN[C@H](COC(=O)NCc2ccc(F)cc2)CO1)C(c1ccccc1)c1ccccc1 (stereo partly drawn) [Example 78, N-(2-{2-fluoro-2-[(2S,5S)-5-({[(4-fluorobenzyl)carbamoyl]oxy}methyl)morpholin-2-yl]ethyl}phenyl)-Nα-(methoxycarbonyl)-β-phenyl-L-phenylalaninamide]  59 nM
14. COC(=O)Nc1ccccc1CC[C@@H]1CO[C@H](CCc2ccccc2NC(=O)[C@@H](NC(=O)OC)C(c2ccccc2)c2ccccc2)CN1 [Example 76, methyl N-[(1S)-1-benzhydryl-2-[[2-[2-[(2R,5R)-5-[2-[2-(methoxy-carbonylamino)phenyl]ethyl]morpholin-2-yl]ethyl]phenyl]amino]-2-oxo-ethyl]carbamate]  52 nM
15. N[C@H](C(=O)Nc1cccc(F)c1CC[C@@H]1CN[C@H](COC(=O)NCc2ccncc2)CO1)C(c1ccc(F)cc1)c1ccc(F)cc1 [Example 198, 4-fluoro-β-(4-fluorophenyl)-N-(3-fluoro-2-{2-[(2R,5S)-5-({[(pyridin-4-ylmethyl)carbamoyl]oxy}methyl)morpholin-2-yl]ethyl}phenyl)-L-phenylalaninamide]  44 nM
16. CCC[C@@H](c1ccccc1)[C@H](N)C(=O)Nc1cccc(F)c1CC[C@@H]1CN[C@H](COC(=O)NCc2ccc(F)cc2)CO1 [Example 199, (βS)-N-(3-fluoro-2-{2-[(2R,5S)-5-({[(4-fluorobenzyl)carbamoyl]oxy}methyl)morpholin-2-yl]ethyl}phenyl)-β-propyl-L-phenylalaninamide]  41 nM
17. N[C@H](C(=O)Nc1c(F)cccc1OC[C@@H]1CN[C@H](COC(=O)NCC(F)(F)F)CO1)C(c1ccc(F)cc1)c1ccc(F)cc1 [Example 200, 4-fluoro-β-(4-fluorophenyl)-N-(2-fluoro-6-{[(2S,5S)-5-({[(2,2,2-trifluoroethyl)carbamoyl]oxy}methyl)morpholin-2-yl]methoxy}phenyl)-L-phenylalaninamide]  31 nM
18. N[C@H](C(=O)Nc1cncc(F)c1OC[C@@H]1CN[C@H](COC(=O)NCC(F)(F)F)CO1)C(c1ccc(F)cc1)c1ccc(F)cc1 [Example 203, 4-fluoro-β-(4-fluorophenyl)-N-(5-fluoro-4-{[(2S,5S)-5-({[(2,2,2-trifluoroethyl)carbamoyl]oxy}methyl)morpholin-2-yl]methoxy}pyridin-3-yl)-L-phenylalaninamide]  28 nM
19. N[C@@H](Cc1ccccc1Cl)C(=O)Nc1cccc(F)c1CC[C@@H]1CN[C@H](COC(=O)NCc2ccc(F)cc2)CO1 [Example 204, 2-chloro-N-(3-fluoro-2-{2-[(2R,5S)-5-({[(4-fluorobenzyl)carbamoyl]oxy}methyl)morpholin-2-yl]ethyl}phenyl)-L-phenylalaninamide]  26 nM
20. COC(=O)N[C@H](C(=O)Nc1ccccc1CC[C@@H]1CN[C@H](CCc2ccccc2NS(=O)(=O)Cc2ccccc2)CO1)C(c1ccccc1)c1ccccc1 [Example 73, N-(2-{2-[(2R,5R)-5-(2-{2-[(benzylsulfonyl)amino]phenyl}ethyl)morpholin-2-yl]ethyl}phenyl)-Nα-(methoxycarbonyl)-β-phenyl-L-phenylalaninamide]  21 nM
21. CCNC(=O)Nc1ccccc1CC[C@@H]1CO[C@H](CCc2ccccc2NC(=O)[C@@H](NC(=O)OC)C(c2ccccc2)c2ccccc2)CN1 [Example 77]  15 nM
22. COC(=O)N[C@H](C(=O)Nc1ccccc1CC[C@@H]1CN[C@H](CCc2ccccc2NC(=O)OCc2ccccc2)CO1)C(c1ccccc1)c1ccccc1 [Example 74, methyl N-[(1S)-1-benzhydryl-2-[[2-[2-[(2R,5R)-5-[2-(2-benzyloxycarbonylamino-phenyl)ethyl]morpholin-2-yl]ethyl]phenyl]amino]-2-oxo-ethyl]carbamate]  10 nM
23. COC(=O)N[C@H](C(=O)Nc1cccc(F)c1CC[C@@H]1CN[C@H](COC(=O)NCC(F)(F)F)CO1)[C@@H](c1ccc(Cl)c(F)c1)C1CCOCC1 [Example 129, (βR)-4-Chloro-3-fluoro-N-(3-fluoro-2-{2-[(2R,5S)-5-({[(2,2,2-trifluoroethyl)carbamoyl]oxy}methyl)morpholin-2-yl]ethyl}phenyl)-Nα-(methoxycarbonyl)-β-(tetrahydro-2H-pyran-4-yl)-L-phenylalaninamide]  8.6 nM
24. NC(=O)OC[C@@H]1CO[C@H](CCc2c(F)cncc2NC(=O)[C@@H](N)C(c2ccc(F)cc2)c2ccc(F)cc2)CN1 [Example 119, N-[4-(2-{(2R,5S)-5-[(Carbamoyloxy)methyl]morpholin-2-yl}ethyl)-5-fluoropyridin-3-yl]-4-fluoro-β-(4-fluorophenyl)-L-phenylalaninamide]  6.9 nM
25. COC(=O)N[C@H](C(=O)Nc1ccccc1CC[C@@H]1CN[C@H](CCc2ccccc2NC(=O)NCc2ccccc2)CO1)C(c1ccccc1)c1ccccc1 [Example 75, methyl N-[(1S)-1-benzhydryl-2-[[2-[2-[(2R,5R)-5-[2-[2-(benzylcarbamoylamino)phenyl]ethyl]morpholin-2-yl]ethyl]phenyl]amino]-2-oxo-ethyl]carbamate]  4.1 nM
